Consider 10 molecules from patent publication US11089783B2, “2-(het)aryl-substituted fused heterocycle derivatives as pesticides” (Bayer Aktiengesellschaft, priority 2017, dated 2021).

What all share (assay type): in vivo
In one test the test system is Nezara viridula. Put plainly: Nezara viridula spray test (NEZARA / NEZAVI). The conditions noted are these: Nezara viridula, 96 h, 4 dat, read-out: % efficacy. The procedure: [table] To produce an appropriate active ingredient formulation, 1 part by weight of active ingredient is dissolved with the specified parts by weight of solvent and made up with water containing an emulsifier concentration of 1000 ppm until the desired concentration is attained. To produce further test concentrations, the mixture is diluted with emulsifier-containing water. If addition of ammonium salts or/and penetrants is required, these are each added to the preparation solution in a concentration of 1000 ppm. Barley plants (Hordeum vulgare) infected with larvae of the southern green shield bug (Nezara viridula) are sprayed with an active ingredient formulation of the desired concentration. After the desired time, the efficacy in % is determined. 100% means that all bugs have been killed; 0% means that no bugs have been killed.

The next test has as its system Phaedon cochleariae. The test is described as follows: Phaedon cochleariae spray test (PHAECO), Chinese cabbage leaf discs. Also on record: key to repellent effect flag: REP = repellent effect. To be noted: for pest or weed control at 100 g/ha: 7 days (7 dat), read-out: efficacy. The protocol: (§1) [table] To produce a suitable active ingredient formulation, 1 part by weight of active ingredient is dissolved with the specified parts by weight of solvent and made up to the desired concentration with water containing an emulsifier concentration of 1000 ppm. To produce further test concentrations, the formulation is diluted with emulsifier-containing water. Discs of Chinese cabbage leaves (Brassica pekinensis) are sprayed with an active ingredient formulation of the desired concentration and, after drying, populated with larvae of the mustard beetle (Phaedon cochleariae). After 7 days, the efficacy in % is determined. 100% means that all the beetle larvae have been killed; 0% means that no beetle larvae have been killed. [table] To produce an appropriate active ingredient formulation, 1 part by weight of active ingredient is dissolved with the stated parts by weight of solvent and made up with water containing an emulsifier concentration of 1000 ppm until the desired concentration is attained. For production of further test concentrations, the mixture is diluted with emulsifier-containing water. Discs of chinese cabbage leaves (Brassica pekinensis) are sprayed with an active ingredient formulation of the desired concentration and, after drying, populated with larvae of the mustard beetle (Phaedon cochleariae). After the desired time, the efficacy in % is determined. 100% means that all beetle larvae have been killed; 0% means that no beetle larvae have been killed.

Test [1] deals with Myzus persicae. The test is described as follows: Myzus persicae oral test. The conditions noted are these: 120 h, after 5 days, read-out: efficacy. The procedure: [table] To produce a suitable active ingredient formulation, 1 part by weight of active ingredient is dissolved with the stated parts by weight of solvent and made up to the desired concentration with water. 50 μl of the active ingredient preparation are transferred into microtitre plates and made up to a final volume of 200 μl with 150 μl of IPL41 insect medium (33%+15% sugar). Subsequently, the plates are sealed with parafilm, which a mixed population of green peach aphids (Myzus persicae) within a second microtitre plate is able to puncture and imbibe the solution. After 5 days, the efficacy in % is determined. 100% means that all the aphids have been killed; 0% means that no aphids have been killed.

The test system of another test is Lucilia cuprina. Put plainly: Lucilia cuprina test. To be noted: 48 h, L1 larvae, after 2 days, read-out: efficacy (kill). The procedure: Solvent: dimethyl sulfoxide To produce a suitable active ingredient formulation, 10 mg of active ingredient are mixed with 0.5 ml of dimethyl sulfoxide, and the concentrate is diluted with water to the desired concentration. About 20 L1 larvae of the Australian sheep blowfly (Lucilia cuprina) are transferred into a test vessel containing minced horsemeat and the active ingredient formulation of the desired concentration. After 2 days, the kill in % is determined. 100% means that all the larvae have been killed; 0% means that no larvae have been killed.

Test [2] concerns Myzus persicae. The test is described as follows: Myzus persicae spray test (MYZUPE), Chinese cabbage leaf discs. To be noted: Myzus persicae, foliar, 120 h, 5 days (5 dat), read-out: efficacy. The protocol:
as §1, with “pekinensis) infested by all stages of the green peach aphid (Myzus persicae)” for “pekinensis)”, “concentration.” for “concentration and, after drying, populated with larvae of the mustard beetle (Phaedon cochleariae).”, “5” for “7”, “aphids” for “beetle larvae”

A further test deals with Meloidogyne incognita. The test is described as follows: Meloidogyne incognita test (MELGIN). The conditions noted are these: Meloidogyne incognita, 336 h, 14 days (14 dat), read-out: efficacy (nematicidal, gall formation). The procedure: [table] To produce a suitable active ingredient formulation, 1 part by weight of active ingredient is mixed with the stated amount of solvent and the concentrate is diluted to the desired concentration with water. Vessels are filled with sand, active ingredient solution, an egg/larvae suspension of the southern root-knot nematode (Meloidogyne incognita) and lettuce seeds. The lettuce seeds germinate and the plants develop. The galls develop on the roots. After 14 days, the nematicidal efficacy in % is determined by the formation of galls. 100% means that no galls were found; 0% means that the number of galls on the treated plants corresponds to the untreated control. [table] To produce an appropriate active ingredient formulation, 1 part by weight of active ingredient is mixed with the specified amount of solvent and the concentrate is diluted to the desired concentration with water. Vessels are filled with sand, active ingredient solution, an egg/larvae suspension of the southern root-knot nematode (Meloidogyne incognita) and lettuce seeds. The lettuce seeds germinate and the plants develop. The root-knots develop on the roots. After the desired time, the nematicidal effect is determined from the formation of root-knots in %. 100% means that no root-knots were found; 0% means that the number of root-knots on the treated plants corresponds to that on the untreated control.

[3] abbreviates: Phaedon cochleariae, foliar, 168 h.
Where [4] appears, read: Phaedon cochleariae, foliar, 168 h, PHAECO, 20 g/ha, 7 dat.
The mark [5] stands for this setting: Phaedon cochleariae, foliar, 168 h, PHAECO, 20 g/ha, 7 dat, read-out: % efficacy.

`CCS(=O)(=O)c1ccc(N(C)C(=O)N(C)C)nc1-c1nc2cc(C(F)(F)F)nnc2n1C` [reference compound]: in the test on Nezara viridula, the Emax at 0.8 g/ha was found to be 0% and the Emax at 4 g/ha came to 50%. Also, the pest or weed control at 100 g/ha in the test on Phaedon cochleariae (setting [3]) worked out at 0%. Also, the percent efficacy (larval mortality) at a fixed application rate at 20 g/ha with Phaedon cochleariae (setting [4]) stood at 0%.
Consider `CCNC(=O)c1ccc(S(C)(=O)=O)c(-c2nc3cc(C(F)(F)C(F)(F)F)nnc3n2C)n1` [Example I-14], for which the pest or weed control at 0.8 ppm in the test with Myzus persicae [1] was found to be 90%. For the same molecule, in the test on Lucilia cuprina, the pest or weed control at 100 ppm turned out to be 90%. Moreover, the pest or weed control at 100 g/ha in the test on Phaedon cochleariae (setting [3]) came out at 100%. In addition, in the test on Phaedon cochleariae (setting [5]), the Emax at 20 g/ha was found to be 83%.
For the molecule `CNC(=O)c1ccc(S(C)(=O)=O)c(-c2nc3cc(C(F)(F)F)nnc3n2C)n1` [reference compound], the pest or weed control at 100 g/ha in the test with Phaedon cochleariae (setting [3]) turned out to be 0%. In the test on Myzus persicae [2], the pest or weed control at 20 g/ha was found to be 0% and the pest or weed control at 100 g/ha was 0%.
As for `Cn1c(-c2nc(C(=O)NC3CC3)ccc2S(C)(=O)=O)nc2cc(C(F)(F)C(F)(F)F)nnc21` [Example I-07], in the test on Myzus persicae [1], the pest or weed control at 0.8 ppm was 90%. Moreover, the repellent effect flag entry with Phaedon cochleariae (PHAECO, 20 g/ha, 7 dat) was “REP”. Moreover, the pest or weed control at 100 g/ha with Phaedon cochleariae (setting [3]) was 100%. This molecule also yielded a percent efficacy (larval mortality) at a fixed application rate at 20 g/ha in the test on Phaedon cochleariae (setting [4]) of 100%.
With `CNC(=O)c1ccc(S(C)(=O)=O)c(-c2nc3cc(C(F)(F)C(F)(F)F)nnc3n2C)n1` [Example I-06], the pest or weed control at 0.8 ppm with Myzus persicae [1] stood at 100%. The pest or weed control at 100 ppm in the test with Lucilia cuprina came out at 95%. The pest or weed control at 100 g/ha in the test on Phaedon cochleariae (setting [3]) was determined as 67%. Also, in the test with Myzus persicae [2], the pest or weed control at 20 g/ha turned out to be 70% and the pest or weed control at 100 g/ha is 90%.
Consider `CCNC(=O)c1ccc(S(C)(=O)=O)c(-c2nc3cc(C(F)(F)F)nnc3n2C)n1` [reference compound], for which the pest or weed control at 100 g/ha with Phaedon cochleariae (setting [3]) was 0%. Also, the percent efficacy (larval mortality) at a fixed application rate at 20 g/ha in the test on Phaedon cochleariae (setting [4]) amounted to 0%.
Consider `CCS(=O)(=O)c1ccc(N(C)C(=O)N(C)C)nc1-c1nc2cc(C(F)(F)C(F)(F)F)nnc2n1C` [Example I-15], for which, in the test on Nezara viridula, the Emax at 0.8 g/ha was 80% and the Emax at 4 g/ha was found to be 100%. Also, in the test with Myzus persicae [1], the pest or weed control at 0.8 ppm turned out to be 100%. Also, the pest or weed control at 20 ppm in the test with Meloidogyne incognita came to 90%. In addition, the pest or weed control at 100 g/ha in the test on Phaedon cochleariae (setting [3]) came out at 100%. The Emax at 20 g/ha in the test on Phaedon cochleariae (setting [5]) was determined as 83%. Further, in the test with Myzus persicae [2], the pest or weed control at 20 g/ha worked out at 90% and the pest or weed control at 100 g/ha was found to be 100%.
`Cn1c(-c2nc(C(=O)NC3CC3)ccc2S(C)(=O)=O)nc2cc(C(F)(F)F)nnc21` [reference compound]: the pest or weed control at 100 g/ha in the test on Phaedon cochleariae (setting [3]) is 50%. In addition, the Emax at 20 g/ha with Phaedon cochleariae (setting [5]) stood at 0%.
`CN(C)C(=O)Nc1ccc(S(C)(=O)=O)c(-c2nc3cc(C(F)(F)F)nnc3n2C)n1` [reference compound]: in the test on Meloidogyne incognita, the pest or weed control at 20 ppm was 0%. Besides, in the test with Phaedon cochleariae (setting [3]), the pest or weed control at 100 g/ha turned out to be 0%. Further, the percent efficacy (larval mortality) at a fixed application rate at 20 g/ha in the test on Phaedon cochleariae (setting [4]) worked out at 0%. In the test on Myzus persicae [2], the pest or weed control at 20 g/ha turned out to be 0% and the pest or weed control at 100 g/ha is 0%.
Consider `CCNC(=O)Nc1ccc(S(=O)(=O)CC)c(-c2nc3cc(C(F)(F)F)nnc3n2C)n1` [reference compound], for which the Emax at 4 g/ha in the test on Nezara viridula is 0%; with Phaedon cochleariae (Phaedon cochleariae, foliar, 168 h, PHAECO, 4 g/ha, 7 dat, read-out: % efficacy) it was 0%. Besides, the pest or weed control at 100 g/ha in the test on Phaedon cochleariae (setting [3]) came out at 50%. Moreover, the Emax at 20 g/ha in the test with Phaedon cochleariae (setting [5]) was found to be 67%.
